Assay results: article PMC3072462 (Journal of medicinal chemistry, 2011)
Several values for one entry are separate records, joined by “and”; a condition that tells them apart may be missing. Equal entries are not always repeated. Where two headings read alike, the source gives them in different places.

Legend:
HIV IN mutant Y143R [1] = conditions: values from two independent experiments
CEM-SS cells = conditions: single concentration 10 μM; cited from earlier work
HIV IN mutant Y143R [2] = conditions: values from two independent experiments; cited from earlier work
[3] = target: T1, recombinant HIV-1 IN (ST) (Human immunodeficiency virus type 1 group M subtype B, UniProt P04585); assay: In vitro integrase catalytic gel assay, strand transfer; format: biochemical
HIV-1IIIB [4] = conditions: HIV-1IIIB in CEM-SS cells, cited from earlier work
[5] = target: T2, recombinant HIV-1 IN (3′P) (Human immunodeficiency virus type 1 group M subtype B, UniProt P04585); conditions: read-out: IN IC50 3′P, gel assay; cited from earlier work
[6] = test system: raltegravir-resistant HIV-1 strain 1556-1 (Y143C); conditions: virus 1556-1, Y143C; NL4-3 based, MT-4 cells; cited from earlier work
[7] = target: T2, recombinant HIV-1 IN (3′P); assay: In vitro integrase catalytic gel assay, 3′ processing; format: biochemical
HIV-1IIIB [8] = assay: HIV cytoprotection; conditions: for TI (therapeutic index, CC50/EC50): HIV-1IIIB in CEM-SS cells; for activity against HIV-1 (in words): 10 μM, CEM-SS cells
[9] = Compound cytotoxicity / cell viability in CEM-SS cells; format: cell-based; conditions: human
MT-4 cells = format: cell-based; conditions: human
[10] = target: T1, recombinant HIV-1 IN (ST); conditions: cited from earlier work
HIV-1NL4-3 strain K103N = assay: Antiviral assay with NNRTI-resistant strain in MAGI R5 cells; format: cell-based; conditions: HIV-1NL4-3 K103N (NNRTI resistance)
HIV-1NL4-3 strain Y181C = assay: as above; format: cell-based; conditions: HIV-1NL4-3 Y181C (NNRTI resistance)

Cc1nnc(C(=O)NC(C)(C)c2nc(C(=O)NCc3ccc(F)cc3)c(O)c(=O)n2C)o1 [Compound 1, raltegravir, reference compound]
Fold-resistance IC50(mutant)/IC50(WT) (HIV IN mutant Y143R [1]): 28

CC(C)c1c(Cc2ccccc2)n(COCc2ccc(F)cc2)c(=O)n(O)c1=O [Compound 4, 6-Benzyl-1-((4-fluorobenzyloxy)methyl)-3-hydroxy-5-isopropylpyrimidine-2,4(1H,3H)-dione]
Cell Viability (%) (CEM-SS cells): 100%
Fold-resistance IC50(mutant)/IC50(WT) (HIV IN mutant Y143R [2]): 7 and 4
fold improvement in IN inhibition over the unsubstituted compound 11 ([3]; ST, 4 vs 11): 6 fold
TI (therapeutic index, CC50/EC50) (HIV-1IIIB [4]): >833
EC50 (HIV-1IIIB [4]; read-out: EC50 (concentration inhibiting virus replication by 50%), dose response): 0.024 µM
CPE Reduction (%) (HIV-1IIIB [4]; single concentration 10 μM): 100%
IC50 [5]: > 111 µM
Fold-resistance EC50(mutant)/EC50(WT) [6]: 5.9

CC(C)c1c(Cc2ccccc2)n(COCc2ccc(F)cc2)c(=O)[nH]c1=O [Compound 9, 6-Benzyl-1-((4-fluorobenzyloxy)methyl)-5-isopropylpyrimidine-2,4(1H,3H)-dione]
IC50 [7]: > 111 µM

CC(C)c1c(Cc2ccccc2)n(COCc2ccc(F)cc2)c(=O)n(C)c1=O [Compound 10, 6-Benzyl-1-((4-fluorobenzyloxy)methyl)-5-isopropyl-3-methylpyrimidine-2,4(1H,3H)-dione]
IC50 [7]: > 111 µM

CC(C)c1c(Cc2ccccc2)n(COCc2ccccc2)c(=O)n(O)c1=O [Compound 11, 6-Benzyl-1-(benzyloxymethyl)-3-hydroxy-5-isopropylpyrimidine-2,4(1H,3H)-dione]
IC50 [5]: > 111 µM

CC(C)c1c(Cc2ccccc2)n(COCc2ccc(F)cc2F)c(=O)n(O)c1=O [Compound 12, 6-Benzyl-1-((2,4-difluorobenzyloxy)methyl)-3-hydroxy-5-isopropylpyrimidine-2,4(1H,3H)-dione]
IC50 [7]: > 111 µM
TI (therapeutic index, CC50/EC50) (HIV-1IIIB [8]): >47
viability at 6 days, 10 µM [9]: 100%

CC(C)c1c(Cc2ccccc2)n(COCc2cccc(Cl)c2F)c(=O)n(O)c1=O [Compound 13, 6-Benzyl-1-((3-chloro-2-fluorobenzyloxy)methyl)-3-hydroxy-5-isopropylpyrimidine-2,4(1H,3H)-dione]
IC50 [7]: > 111 µM
Fold-resistance IC50(mutant)/IC50(WT) (HIV IN mutant Y143R [1]): 7
TC50 (toxicity observed) (MT-4 cells): c Toxicity observed (TC50 = 2.0 μM).
TI (therapeutic index, CC50/EC50) (HIV-1IIIB [8]): >105
viability at 6 days, 10 µM [9]: 100%

COn1c(=O)c(C(C)C)c(Cc2ccccc2)n(COCc2ccc(F)cc2)c1=O [Compound 14, 6-Benzyl-1-((4-fluorobenzyloxy)methyl)-5-isopropyl-3-methoxypyrimidine-2,4(1H,3H)-dione]
IC50 [7]: > 111 µM

CC(C)c1c(Cc2ccccc2)n(COCc2ccccc2)c(=O)n(N)c1=O [Compound 15, 3-Amino-6-benzyl-1-(benzyloxymethyl)-5-isopropylpyrimidine-2,4(1H,3H)-dione]
inhibitory activity against IN (in words) [10]: completely devoid of inhibitory activity
IC50 [5]: > 111 µM

CC(C)c1c(Cc2ccccc2)n(COCCc2ccc(F)cc2)c(=O)n(O)c1=O [Compound 28, 6-Benzyl-1-((4-fluorophenethoxy)methyl)-3-hydroxy-5-isopropylpyrimidine-2,4(1H,3H)-dione]
IC50 [7]: > 111 µM

CC(C)c1c(Cc2ccccc2)n(COCCCc2ccc(F)cc2)c(=O)n(O)c1=O [Compound 29, 6-Benzyl-1-((3-(4-fluorophenyl)propoxy)methyl)-3-hydroxy-5-isopropylpyrimidine-2,4(1H,3H)-dione]
IC50 [7]: > 111 µM

CC(C)c1c(Cc2ccccc2)n(COCCCCc2ccc(F)cc2)c(=O)n(O)c1=O [Compound 30, 6-Benzyl-1-((4-(4-fluorophenyl)butoxy)methyl)-3-hydroxy-5-isopropylpyrimidine-2,4(1H,3H)-dione]
IC50 [7]: > 111 µM

CC(C)c1c(Cc2ccccc2)n(Cc2ccc(F)cc2)c(=O)n(O)c1=O [Compound 32, 6-Benzyl-1-(4-fluorobenzyl)-3-hydroxy-5-isopropylpyrimidine-2,4(1H,3H)-dione]
IC50 [7]: > 111 µM

CC(C)c1c(Cc2ccccc2)n(CCc2ccc(F)cc2)c(=O)n(O)c1=O [Compound 42, 6-Benzyl-1-(4-fluorophenethyl)-3-hydroxy-5-isopropylpyrimidine-2,4(1H,3H)-dione]
IC50 [7]: > 111 µM

CC(C)c1c(Cc2ccccc2)n(CCCc2ccc(F)cc2)c(=O)n(O)c1=O [Compound 43, 6-Benzyl-1-(3-(4-fluorophenyl)propyl)-3-hydroxy-5-isopropylpyrimidine-2,4(1H,3H)-dione]
IC50 [7]: > 111 µM
activity against HIV-1 (in words) (HIV-1IIIB [8]): only marginal activity

CC(C)c1c(Cc2ccccc2)n(CCCCc2ccc(F)cc2)c(=O)n(O)c1=O [Compound 44, 6-Benzyl-1-(4-(4-fluorophenyl)butyl)-3-hydroxy-5-isopropylpyrimidine-2,4(1H,3H)-dione]
IC50 [7]: > 111 µM
activity against HIV-1 (in words) (HIV-1IIIB [8]): only marginal activity

CCc1c(Cc2ccccc2)c(=O)[nH]c(=O)n1COCc1ccccc1 [Compound 49, 5-Benzyl-1-(benzyloxymethyl)-6-ethylpyrimidine-2,4(1H,3H)-dione]
viability at 6 days, 10 µM [9]: 100%

CC(C)c1c(Cc2ccc(F)cc2)n(COCc2ccccc2)c(=O)n(O)c1=O [Compound 51, 1-(Benzyloxymethyl)-6-(4-fluorobenzyl)-3-hydroxy-5-isopropylpyrimidine-2,4(1H,3H)-dione]
IC50 [7]: > 111 µM
TI (therapeutic index, CC50/EC50) (HIV-1IIIB [8]): >18
viability at 6 days, 10 µM [9]: 100%

CC(C)c1c(Cc2ccc(F)cc2)n(COCc2ccc(F)cc2)c(=O)n(O)c1=O [Compound 52, 6-(4-Fluorobenzyl)-1-((4-fluorobenzyloxy)methyl)-3-hydroxy-5-isopropylpyrimidine-2,4(1H,3H)-dione]
IC50 [7]: > 111 µM

CCc1c(Cc2ccccc2)n(COCc2ccccc2)c(=O)n(O)c1=O [Compound 53, 6-Benzyl-1-(benzyloxymethyl)-5-ethyl-3-hydroxypyrimidine-2,4(1H,3H)-dione]
IC50 [7]: > 111 µM

Cc1cn(COCc2ccccc2)c(=O)n(O)c1=O [Compound 54, 1-(Benzyloxymethyl)-3-hydroxy-5-methylpyrimidine-2,4(1H,3H)-dione]
IC50 [7]: > 111 µM

CCc1c(Cc2ccccc2)c(=O)n(O)c(=O)n1COCc1ccccc1 [Compound 55, 5-Benzyl-1-(benzyloxymethyl)-6-ethyl-3-hydroxypyrimidine-2,4(1H,3H)-dione]
IC50 [7]: > 111 µM
fold increase of IC50 value on swapping C5 and C6 substituents ([3]; ST, 55 vs 53): 4 fold

CCc1c(Cc2ccccc2)c(=O)n(O)c(=O)n1COCc1ccc(F)cc1 [Compound 56, 5-Benzyl-6-ethyl-1-((4-fluorobenzyloxy)methyl)-3-hydroxypyrimidine-2,4(1H,3H)-dione]
IC50 [7]: > 111 µM

CC(C)c1c(Cc2ccc(F)cc2)n(Cc2ccccc2)c(=O)n(O)c1=O [Compound 64, 1-Benzyl-6-(4-fluorobenzyl)-3-hydroxy-5-isopropylpyrimidine-2,4(1H,3H)-dione]
IC50 [7]: > 111 µM

CC(C)c1c(Cc2ccc(F)cc2)n(Cc2ccc(F)cc2)c(=O)n(O)c1=O [Compound 65, 1,6-Bis(4-fluorobenzyl)-3-hydroxy-5-isopropylpyrimidine-2,4(1H,3H)-dione]
IC50 [7]: > 111 µM

CC(C)c1c(Cc2ccccc2)n(Cc2ccccc2)c(=O)n(O)c1=O [Compound 66, 1,6-Bibenzyl-3-hydroxy-5-isopropylpyrimidine-2,4(1H,3H)-dione]
IC50 [7]: > 111 µM

CCc1c(Cc2ccccc2)n(Cc2ccccc2)c(=O)n(O)c1=O [Compound 67, 1,6-Bibenzyl-5-ethyl-3-hydroxypyrimidine-2,4(1H,3H)-dione]
IC50 [7]: > 111 µM
inhibitory activity against IN (in words) [3]: complete loss of inhibition

CCc1c(Cc2ccccc2)n(Cc2ccc(F)cc2)c(=O)n(O)c1=O [Compound 68, 6-Benzyl-5-ethyl-1-(4-fluorobenzyl)-3-hydroxypyrimidine-2,4(1H,3H)-dione]
IC50 [7]: > 111 µM

Cc1cn(Cc2ccccc2)c(=O)n(O)c1=O [Compound 69, 1-Benzyl-3-hydroxy-5-methylpyrimidine-2,4(1H,3H)-dione]
IC50 [7]: > 111 µM

Cc1cn(Cc2ccc(F)cc2)c(=O)n(O)c1=O [Compound 70, 1-(4-Fluorobenzyl)-3-hydroxy-5-methylpyrimidine-2,4(1H,3H)-dione]
IC50 [7]: > 111 µM

O=c1c2ccccc2n(Cc2ccccc2)c(=O)n1O [Compound 75]
IC50 [7]: > 111 µM
IC50 [3]: > 111 µM
inhibitory activity against IN (in words) [3]: completely inactive

O=c1c2ccccc2n(Cc2ccc(F)cc2)c(=O)n1O [Compound 76]
IC50 [7]: > 111 µM
IC50 [3]: > 111 µM
inhibitory activity against IN (in words) [3]: completely inactive

CC(C)c1c(Cc2ccccc2)n(COCc2ccccc2)c(=O)[nH]c1=O [TNK-651]
fold-resistance (HIV-1NL4-3 strain K103N): 22
fold-resistance (HIV-1NL4-3 strain Y181C): 72
